Reference: patent US12551532B2, “Long-acting amylin receptor agonists and uses thereof” (Eli Lilly and Company, priority 2021, dated 2026)
Starred links: 1 amine or outer side, 2 acyl side, 3 side chain; linkers in the order of their positions; H or OH if unused. Positions of bridges follow the written chain, without caps; N, C: chain ends. Non-standard residues stand in square brackets, D forms with d. Residues, ends and D or L forms follow the SMILES beside them. Groups on a side chain read outwards from the residue. *: point of attachment. C20 diacid = O=C(O)CCCCCCCCCCCCCCCCCCC(=O)*; γGlu = O=C(O)[C@H](CCC(=O)[*:2])N[*:1]; αMeL = CC(C)C[C@](C)(N)C(=O)O; Orn = NCCC[C@H](N)C(=O)O; CH2 = C([*:1])[*:2]

Assay: Body weight and body composition in diet-induced obese rats, 2-week study
Format: in vivo, Long Evan rats
Settings: DIO rats, at 2 weeks vs initial
Experimental: Male Long Evan rats from Envigo RMS (Indianapolis, IN) at 14 weeks of age are put on a high fat diet (40% of kcal from fat, TD.95217; Envigo RMS, Indianapolis, IN) until 35-45 weeks old. Animals are individually housed in a temperature-controlled facility (75.0° F.; 23.9° C.) with a 12-hour reverse light/dark cycle (lights OFF at 10 AM) and free access to food and water. Body weights are recorded and body composition (fat mass) is determined using Quantitative Nuclear Magnetic Resonance Analysis (ECHO MRI, 3-1 Composition Analyzer; Echo Medical Systems, Houston, TX), followed by randomization into experimental groups (n=5). Rats are administered subcutaneous injections of vehicle or peptide (1 mL/kg) every three days (day 1, 4, 7, 10, and 13). Daily body weights are recorded and changes at end of treatment (day 14) are calculated as percentages versus pre-treatment weights (day 1). Body composition is determined on day 14, and changes in fat mass and fat-free mass (body weight−fat mass) are calculated from pre-treatment values as gram changes.

[1] = 100 nmol/kg SC every three days

Compound: CC[C@H](C)[C@H](NC(=O)[C@@H]1CCCN1C(=O)CNC(=O)[C@H](Cc1ccccc1)NC(=O)[C@H](CC(N)=O)NC(=O)[C@H](Cc1c[nH]cn1)NC(=O)[C@H](CO)NC(=O)[C@H](CO)NC(=O)[C@H](CCCNC(=N)N)NC(=O)[C@@H](NC(=O)[C@H](CC(C)C)NC(=O)[C@H](Cc1ccccc1)NC(=O)[C@H](CCC(=O)O)NC(=O)[C@H](C)NC(=O)[C@](C)(CC(C)C)NC(=O)[C@H](CCCN)NC(=O)CNC(=O)[C@@H](NC(=O)[C@H](C)NC(=O)[C@@H]1CSCSC[C@H](NC(=O)[C@@H](N)CCCCNC(=O)CC[C@H](NC(=O)CC[C@H](NC(=O)CCCCCCCCCCCCCCCCCCC(=O)O)C(=O)O)C(=O)O)C(=O)N[C@@H](CCC(=O)O)C(=O)N[C@@H]([C@@H](C)O)C(=O)N[C@@H](C)C(=O)N[C@@H]([C@@H](C)O)C(=O)N1)[C@@H](C)O)C(C)C)C(=O)N[C@@H](CC(C)C)C(=O)N1CCC[C@H]1C(=O)N1CCC[C@H]1C(=O)N[C@H](C(=O)N[C@@H](CCC(=O)O)C(=O)N[C@H](C(=O)NCC(=O)N[C@@H](CO)C(=O)N[C@@H](CC(N)=O)C(=O)N[C@H](C(=O)N[C@@H](Cc1ccc(O)cc1)C(N)=O)[C@@H](C)O)C(C)C)[C@@H](C)O [Compound VIII] (H-K([γGlu-γGlu-C20 diacid])CETATCATG[Orn][αMeL]AEFLVRSSHNFGPILPPTEVGSNTY-NH2; linker 2-7 via CH2)
- Δ Body Weight (1 nmol/kg SC every three days): −6.0%
- Δ Fat Mass (1 nmol/kg SC every three days): -36.6 g
- Δ Fat-Free Mass (1 nmol/kg SC every three days): -4.7 g
- Δ Body Weight (10 nmol/kg SC every three days): −9.0%
- Δ Fat Mass (10 nmol/kg SC every three days): -54.3 g
- Δ Fat-Free Mass (10 nmol/kg SC every three days): -7.2 g
- Δ Body Weight [1]: −11.5%
- Δ Fat Mass [1]: -56.4 g
- Δ Fat-Free Mass [1]: -26.9 g
